Measurements published in patent US10604473B2, “Lipids that increase insulin sensitivity and methods of using the same” (Beth Israel Deaconess Medical Center, Inc., priority 2013, dated 2020).

What was measured:
isolated rat islets = assay: Insulin release in isolated rat islets; type: cell-based; details: 25 mM glucose in the media
Method: Ins1 cells (FIG. 21) or primary rat islet cells (FIG. 22) were seeded in 24 well-plates [˜10^6 cells/well]. At confluence, cells were incubated with Low Serum [2.5%] and Low Glucose [2.5 mM] media for 12 hours. Next, cells were incubated with KRB buffer for 1 h and stimulated with glucose in the presence of 5-PAHSA (FIG. 21) or 9-PAHSA (FIG. 21) for 45 min in KRB. At the end of the stimulation, 100 μL of media was collected and 10 μL was used to quantitate the amount of insulin released by ELISA. Treatment Conditions for FIGS. 21 and 22 were: • 5-PAHSA or 9-PAHSA [Stock]=20.0 mM [10.76 mg/mL Methanol] • A] 1 uM=0.3 uL/6 mL [Amount of methanol/mL=0.05 uL] • B] 5 uM=1.5 uL/6 mL [Amount of methanol/mL=0.25 uL] • C] 10 uM=3.0 uL/6 mL [Amount of methanol/mL=0.50 uL] • D] 20 uM=6.0 uL/6 mL [Amount of methanol/mL=1.00 uL] […]
Isolated rat islets were cultured overnight in RPMI 1640 medium containing 2.5 mM glucose and 2.5% fetal bovine serum supplemented with 100 IU/ml penicillin and 100 IU/ml streptomycin, 1 mM sodium pyruvate, and 10 mM HEPES (pH 7.4). […] At the end of the stimulation supernatant was collected and insulin released into the medium was quantified by ELISA as per manufacturer's protocol. The islets were lysed and protein content was measured and the amount of insulin released into the media was quantitated as ng/mL/μg of protein.

Human islets = assay: Glucose-stimulated insulin secretion in primary human islets; type: cell-based
Method: Two human donors provided cells used in these studies. Donor1 was a person, 5′0″, 157 lbs, with a BMI of 30.5, HbA1C was 5.8, who died from a stroke, but it was witnessed and they had no downtime. Islets were 80% pure and 95% viable. After arrival, islets were incubated overnight in human islet media before stimulation with glucose in presence and absence of 5-PAHSA (lipid A-5). Note 1 IU of Human Insulin=6 nmol=34.8 μg Insulin.
Human islets were divided into ten groups [100 islets per condition]
A] Low glucose [2.5 mM]; B] High glucose [20.0 mM]; C] Low glucose [2.5 mM]+2.5 μL/mL Methanol; D] High glucose [20.0 mM]+2.5 μL/mL Methanol; E] Low glucose+20 μM Lipid A-5; F] High glucose+20 μM Lipid A-5; G] Low glucose+50 μM Lipid A-5; H] High glucose+50 μM Lipid A-5.
Islets were cultured overnight in Human Islet media and next day incubated with KRB buffer for 4 h prior to glucose stimulation.
Following KRB incubation, islets were stimulated with glucose [2.5 mM & 20.0 mM] in the presence and absence of Lipid A-5 [20 & 50 μM] for 45 min
At the end of glucose stimulation the amount of insulin released [μ IU/mL] into the media was measured using Human Insulin ELISA kit. And the insulin content from the islets were extracted to express insulin released into the media as μ IU/mL/islet content.
Donor 2 was a person, 183 cm, 176 lbs, with a BMI of 23.9, HbA1C was 5.0, died from a stroke, but it was witnessed and they had no downtime. Islets were 85% pure and 95% viable. After arrival, islets were incubated overnight in human islet media before stimulation with glucose in presence and absence of 5-PAHSA (Lipid A-5).
Human islets were divided into […] [75 islets per condition]: A] Low glucose [2.5 mM]; B] High glucose [20.0 mM]; C] Low glucose [2.5 mM]+2.5 μL/mL Methanol; D] High glucose [20.0 mM]+2.5 μL/mL Methanol; E] Low glucose+20 μM Lipid A-5; F] High glucose+20 μM Lipid A-5.
Following KRB incubation, islets were stimulated with glucose [2.5 mM & 20.0 mM] in the presence and absence of Lipid A-5 [20 μM] for 45 min.

[1] = Serum 5-PAHSA after oral administration; type: in vivo, mouse; details: oral gavage
Method: FIG. 56 is a bar graph showing serum 5-PAHSA levels after oral administration of synthesized 5-PAHSA. 3 h after food removal, mice were gavaged with 30 mg/kg body weight (chow-fed) or 45 mg/kg body weight (HFD-fed) of 5-PAHSA. 5 h post gavage, blood was collected via tail vein and serum 5-PAHSA was analyzed by mass spectrometry. n=3 mice per group. Data are expressed as mean±s.e.m. *p<0.05 vs. vehicle treated on the same diet; and δp<0.05 vs. chow vehicle.

- serum 5-PAHSA levels versus chow baseline ([1]; HFD-fed mice): more than restored the levels
- increase in serum 5-PAHSA levels ([1]; mice on chow (30 mg/kg) and HFD (45 mg/kg), 5 h post gavage): 3-5 fold
SMILES: CCCCCCCCCCCCCCCC(=O)OC(CCCCCCCCCCCCC)CCCC(=O)O (stereo not shown) [5-PAHSA]
- glucose-stimulated insulin secretion (isolated rat islets): potentiates glucose-stimulated insulin secretion
- insulin secretion (Human islets; 2.5 mM glucose, 5-PAHSA 20 μM): had no effect on insulin secretion
- insulin secretion response (Human islets; 20 mM glucose, 5-PAHSA 20 μM): augmented the insulin secretion response
- Glucose Stimulated Insulin Secretion (Human islets; Donor 1): induces Glucose Stimulated Insulin Secretion
- Glucose Stimulated Insulin Secretion (Human islets; Donor 2): induces Glucose Stimulated Insulin Secretion
